Assay results: BindingDB's records for doi:10.1021/ml300471d (Genfit, 2013)

Biological target: T1, Nuclear receptor ROR-alpha (Homo sapiens, UniProt P35398)
T1 sequence (P35398 whole entry): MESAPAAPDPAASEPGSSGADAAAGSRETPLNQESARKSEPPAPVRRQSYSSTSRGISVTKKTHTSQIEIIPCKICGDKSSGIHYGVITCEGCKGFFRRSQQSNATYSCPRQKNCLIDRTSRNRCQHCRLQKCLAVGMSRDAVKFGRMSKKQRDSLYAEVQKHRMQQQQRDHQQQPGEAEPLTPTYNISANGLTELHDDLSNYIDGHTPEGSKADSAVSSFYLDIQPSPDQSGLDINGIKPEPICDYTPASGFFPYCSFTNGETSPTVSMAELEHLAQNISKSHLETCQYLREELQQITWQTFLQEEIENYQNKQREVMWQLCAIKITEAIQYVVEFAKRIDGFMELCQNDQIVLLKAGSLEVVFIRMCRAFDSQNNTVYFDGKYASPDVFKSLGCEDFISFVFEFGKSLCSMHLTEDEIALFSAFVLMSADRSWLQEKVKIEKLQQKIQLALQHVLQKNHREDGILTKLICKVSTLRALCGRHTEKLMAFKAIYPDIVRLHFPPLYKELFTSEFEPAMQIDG
Assay: Partial agonist activity at GST-fussed RORalpha (unknown origin) assessed as recruitment of TIF2-BAP protein after overnight incubation by pull down assay

Row | EC50 | Structure (SMILES)
1 | > 30 µM | CCOC(=O)C1C(CC)=NC(=O)NC1c1ccc(OCc2ccccc2)c(OC)c1 (stereo unspecified)
2 | > 30 µM | COc1cc(C2NC(=O)N=C(C)C2C(=O)OCc2ccccc2)ccc1OCc1ccccc1 (stereo unspecified)
3 | > 30 µM | CCOC(=O)C1C(C)=NC(=O)N(C)C1c1ccc(OCc2ccccc2)c(OC)c1 (stereo unspecified)
4 | > 30 µM | COc1cc(C2NC(=O)N=C(C)C2C(=O)OCCSC)ccc1OCc1ccccc1 (stereo unspecified)
5 | > 30 µM | CC1=NC(=O)NC(c2ccc(OCc3ccccc3)cc2)C1C(=O)OCC(F)(F)F (stereo unspecified)
6 | > 30 µM | COc1cc(C2NC(=O)N=C(C)C2C(=O)OCC(F)(F)F)ccc1OCc1ccccc1 (stereo unspecified)
